Data: ChEMBL document CHEMBL1149994, “Total synthesis of novel conduritol related compounds capable of modulating insulin release” (1994)

Legend:
[1] = organism: Rattus norvegicus; experiment: Tested for change in release of insulin from pancreatic islets of Sprague-Dawley rats at a concentration of 2.8 mM glucose; type: functional
[2] = organism: Rattus norvegicus; experiment: Tested for change in release of insulin from pancreatic islets of Sprague-Dawley rats at a concentration of 16.7 mM glucose; type: functional

| SMILES | Change [1] [%] | Change [2] [%] |
| --- | --- | --- |
| O[C@H]1[C@H](O)[C@@H](O)C=C[C@H]1O | 9 | -3 |
| O[C@H]1[C@H](O)[C@H](O)C=C[C@H]1O | 12 | 15 |
| O[C@@H]1[C@H](O)[C@@H](O)C=C[C@H]1O | 45 | -30 |
| CC(C)[C@@]12CC[C@@](C)(C3C1[C@H](O)[C@@H](O)[C@@H](O)[C@@H]3O)[C@@H](O)[C@H]2O (stereo partly specified) | -30 | -30 |
| O[C@H]1[C@H](O)[C@@H](O)C=C[C@@H]1O | 41 | 50 |
| O[C@@H]1[C@H](O)[C@@H](O)C2C(C3CCC2[C@H](O)[C@@H]3O)[C@H]1O (stereo partly specified) | -18 | 44 |
| O[C@@H]1[C@H](O)[C@H](O)C=C[C@@H]1O | 0 | 0 |
| O[C@@H]1[C@H](O)[C@H](O)C=C[C@H]1O | 27 | -20 |
| C[C@@]1(O)CC2C(C[C@@]1(C)O)[C@H](O)[C@@H](O)[C@@H](O)[C@@H]2O (stereo partly specified) | -60 | 0 |
| O[C@@H]1[C@H](O)[C@@H](O)C2C([C@H](O)CC[C@@H]2O)[C@H]1O (stereo partly specified) | -45 | -35 |
| CC(=O)O[C@@H]1[C@H](OC(C)=O)[C@@H](OC(C)=O)C2C(C3CCC2[C@H](O)[C@@H]3O)[C@H]1OC(C)=O (stereo partly specified) | -60 | -23 |
| CC(C)[C@@]12CC[C@@]3(C)C4C1[C@H](O[C@H]2[C@@H]3O)C(O)[C@@H](O)[C@@H]4O (single isomer, unassigned) | -60 | -45 |
| OC1[C@H]2O[C@@H]3C4CCC(C(C42)[C@@H](O)[C@@H]1O)[C@H]3O (single isomer, unassigned) | 0 | -70 |
